Values of other authors in patent US12691176B2, “Ionic nanovesicle suspension and biocide prepared therefrom” (priority 2015, dated 2026).

Tests used:
[1] = tested on: bacteria; conditions: very low concentrations
[2] = tested on: fungi

For Polyaminopropyl biguanide [PAPB], the bactericidal concentration [1] is given as 10 mg/L and the fungicidal activity [2] is given as “fungicidal”.
